Measurements: ChEMBL document CHEMBL4406879, “A mouse model-based screening platform for the identification of immune activating compounds such as natural products for novel cancer immunotherapies” (Bioorg Med Chem, 2019)
Active and inactive are the calls of the source. No cut-off for these calls is given here.

Tests used:
[1] = test system: Mycobacterium tuberculosis; experiment: Antibacterial activity against Mycobacterium tuberculosis; type: functional, organism-based
Ramos = experiment: Cytotoxicity against human Ramos cells; type: functional, cell-based
Bone marrow cell [2] = experiment: Cytotoxicity against Flt3L-cultured mouse pDC-rich bone marrow cells assessed as cell viability at 1 to 10 uM incubated for 24 hrs by MTT assay; type: cell-based
Bone marrow cell [3] = experiment: Cytotoxicity against GM-CSF-cultured mouse cDC-rich bone marrow cells assessed as cell viability at 1 to 10 uM incubated for 24 hrs by MTT assay; type: cell-based
Mus musculus [4] = species on record: Mus musculus; experiment: (§1) Immunostimulatory activity in CD4-positive T cells isolated from OVA-specific OT-II TCR transgenic mouse model assessed as T cell activation by measuring increase in IL-2 production at 10 uM compound incubated with GM-CSF cultured mouse bone marrow cells for 24 hrs followed by addition of isolated CD4+ T cells and further incubation for 5 days by ELISA; type: functional, cell-based
Dendritic cell [5] = experiment: Immunostimulatory activity in GM-CSF-cultured bone marrow-derived dendritic cells isolated from get40 cytokine reporter mouse model assessed as induction of IL12p40 production at 0.1 to 10 uM incubated for 16 hrs by flow cytometry relative to control; type: functional
Dendritic cell [6] = experiment: Immunostimulatory activity in GM-CSF-cultured bone marrow-derived dendritic cells isolated from get40 cytokine reporter mouse model assessed as induction of IL12p40 production at 0.1 to 10 uM incubated for 16 hrs in presence of CpG 2216 by flow cytometry relative to control; type: functional
Jurkat = experiment: Cytotoxicity against human Jurkat cells; type: functional, cell-based
Dendritic cell [7] = experiment: Immunostimulatory activity in GM-CSF-cultured bone marrow-derived dendritic cells isolated from get40 cytokine reporter mouse model assessed as induction of IL12p40 production at 0.1 to 10 uM incubated for 16 hrs in presence of LPS by flow cytometry relative to control; type: functional
Bone marrow cell [8] = experiment: Cytotoxicity against M-CSF-cultured mouse macrophage-rich bone marrow cells assessed as cell viability at 1 to 10 uM incubated for 24 hrs by MTT assay; type: cell-based
Mus musculus [9] = species on record: Mus musculus; experiment: as §1, with “production at 1 uM compound” for “production at 10 uM compound”, “marrow cells in presence of CpG 2216 for 24” for “marrow cells for 24”; type: functional, cell-based

| SMILES | Activity [1] | Activity (Ramos) | Activity (Bone marrow cell [2]) | Activity (Bone marrow cell [3]) | Activity (Mus musculus [4]) | fold change (FC) (Dendritic cell [5]) | fold change (FC) (Dendritic cell [6]) | Activity (Jurkat) | fold change (FC) (Dendritic cell [7]) | Activity (Bone marrow cell [8]) | Activity (Mus musculus [9]) |
| --- | --- | --- | --- | --- | --- | --- | --- | --- | --- | --- | --- |
| [O-][n+]1ccc2c([nH]c3ccccc32)c1C1=C[C@@]2(O)CC/C=C\CCCCN3CC[C@@H]1[C@]1(CC/C=C\CCCCN[C@H]12)C3 | Active | Active | Non-Toxic | Non-Toxic | inactive | 2 | 2 | Active | 2 | Non-Toxic | – |
| C=C1[C@@H](C)[C@H]2[C@H](Cc3ccccc3)NC(=O)[C@]23[C@H](OC(C)=O)/C=C/[C@@H](C)C[C@@H](C)C/C=C/[C@H]3[C@@H]1O | – | Active | Non-Toxic | Non-Toxic | – | 2 | 2 | Active | 2 | Non-Toxic | Active |
| C=C1[C@@H](C)[C@H]2[C@H](Cc3ccccc3)NC(=O)[C@]23[C@H](OC(C)=O)/C=C/[C@@](C)(O)C(=O)[C@@H](C)C/C=C/[C@H]3[C@@H]1O [CYTOCHALASIN D] | – | Active | Non-Toxic | Non-Toxic | – | 2 | 2 | Active | 2 | Non-Toxic | Active |
